Measurements from US20070148193A1, “Lutein concentrate” (AQUANOVA GERMAN SOLUBILISATE TECHNOLOGIES (AGT) GM, priority 2003, published 2007).

Key:
[1] = cited from earlier work
[2] = test system: LDL (low-density lipoprotein); experiment: oxidation resistance of LDL (study by Milde and Elstner); type: biochemical; conditions: lutein as a powder or dissolved in ethanol vs. solubilizate
From the text: A study by J. Milde and E. F. Elstner (Technical University of Munich) has shown that lutein has no effect on the oxidation resistance of LDL (low-density lipoprotein) as a powder or dissolved in ethanol. […] The micellated lutein from the solubilizate is enriched in the LDL by a factor of 9 more (10 mole lutein/mole LDL).

Row | Molecule | solubility in water (background statement) [1] | effect on the oxidation resistance of LDL [2]
1 | lutein ester | practically insoluble in water | 
2 | CC1=C[C@H](O)CC(C)(C)[C@H]1/C=C/C(C)=C/C=C/C(C)=C/C=C/C=C(C)/C=C/C=C(C)/C=C/C1=C(C)C[C@@H](O)CC1(C)C [lutein] | practically insoluble in water | no effect
